Where two headings read alike, the source gives them in different places.

What all share (assay type): biochemical
The target in experiment [1] is Human PDE4A3 (Homo sapiens (Human), UniProt P27815). The experiment can be described thus: PDE4A3 Scintillation Proximity Assay (SPA), inhibition of enzyme activity. Conditions: read-out: Human PDE4A FL. As to the method:
(§1) The PDE4A, PDE4B, PDE4C and PDE4D binding affinity for the compounds of the present invention was determined utilizing the following biological assay(s):
(§2) The recombinant Bacmid was isolated and used to transfect insect cells to generate a viral stock. To generate cell paste for purification, insect cells were infected with the virus stock and cells were harvested 72 hours after infection. Insect cell paste was lysed and after centrifugation, the supernatant was batch bound to Ni-NTA agarose (GE Healthcare) and eluted with 250 mM imidazole. This eluate was diluted with FLAG buffer (50 mM Tris HCL pH 7.5, 100 mM NaCl, 5% Glycerol, 1 mM TCEP with protease inhibitors) and batch bound to ant-FLAG M2 agarose (Sigma) overnight at 4° C. The agarose was packed into a column, washed with buffer and eluted with buffer containing elute using 250 ug/ml Flag-peptide. Fractions were analyzed using SDS-PAGE Coomassie blue staining and pooled based on purity. Pooled fractions were chromatographed on a S200 120 ml column (GE Healthcare) in 50 mM Tris HCL pH 7.5, 150 mM NaCl, 10% Glycerol, 2 mM TCEP with protease inhibitors. PDE4A3 fractions were analyzed by SDS-PAGE Coomassie blue staining, pooled based on purity, dialyzed against 50 mM Tris HCL pH 7.5, 100 mM NaCl, 20% Glycerol, 2 mM TCEP, frozen and stored at −80° C.
(§3) The PDE4A3, PDE4B1, PDE4C1 and PDE4D3 assays use the Scintillation Proximity Assay (SPA) technology to measure the inhibition of human recombinant PDE4A1, PDE4B3, PDE4C1, and PDE4D3 enzyme activity by compounds in vitro. The PDE4A1, PDE4B3, PDE4C1, and PDE4D3 assays are run in parallel using identical parameters, except for the concentration of enzyme ([…]). The assays are performed in a 384-well format with 50 uL assay buffer (50 mM TRIS pH7.5; 1.3 mM MgCl2; 0.01% Brij) containing enough PDE4A3, PDE4B1, PDE4C1, and PDE4D to convert ˜20% of substrate (1 μM cAMP consisting of 20 nM 3H-cAMP+[…] cold cAMP) and a range of inhibitors. Reactions are incubated for 30 min at 25° C. The addition of 20 uL of 8 mg/ml yitrium silicate SPA beads (Perkin Elmer) stops the reaction. The plates are sealed (TopSeal, Perkin Elmer) and the beads are allowed to settle for 8 hrs, after which they are read on the Trilux Microbeta overnight.

In experiment [2] the target is Human PDE4C1 (Homo sapiens (Human), UniProt Q08493). The experiment can be described thus: PDE4C1 Scintillation Proximity Assay (SPA), inhibition of enzyme activity. Conditions: read-out: Human PDE4C FL. The method, then:
as §1
as §2, with “PDE4C1” for “PDE4A3”
as §3
Background: In a scintillation proximity assay essentially only radioactivity close to the scintillant gives light.

Experiment [3] has as its target human PDE4D3 (Homo sapiens (Human), UniProt Q08499). The experiment can be described thus: PDE4D3 Scintillation Proximity Assay (SPA), inhibition of enzyme activity. The settings on record: read-out: Human PDE4D FL. As to the method: as §1
A portion of the human PDE4D3 coding sequence (amino acids 50 to 672 from the sequence with accession number Q08499-2) was cloned into the baculovirus expression vector pFastBac (Invitrogen) engineered to include a C-terminal His6 affinity tag to aid in purification as described in Seeger, T. F. et al., Brain Research 985 (2003) 113-126. The recombinant Bacmid was isolated and used to transfect insect cells to generate a viral stock. To generate cell paste for purification, insect cells were infected and cells were harvested 72 hours after infection. Insect cell paste was lysed and after centrifugation, the supernatant was chromatographed on Ni-NTA agarose (Qiagen) as described in Seeger, T. F. et al., Brain Research 985 (2003) 113-126. Ni-NTA agarose eluting fractions containing PDE4 were pooled, diluted with Q Buffer A (50 mM Tris HCl pH 8, 4% glycerol, 100 mM NaCl, 1 mM TCEP, Protease inhibitors EDTA-free (Roche)) to reduce NaCl to ˜200 mM, and loaded on a Q Sepharose (GE Healthcare) column. After washing with Q buffer A to baseline, PDE4D was eluted with a gradient from 10% to 60% of Buffer B (50 mM Tris HCl pH 8, 1 M NaCl, 4% glycerol, 1 mM TCEP). PDE4D fractions were analyzed by SDS-PAGE Coomassie blue staining, pooled based on purity, frozen and stored at −80° C.
as §3

Experiment [4] addresses Human PDE4B1 (Homo sapiens (Human), UniProt Q07343, S133E/S654A/S659A/S661A). Briefly: PDE4B1 Scintillation Proximity Assay (SPA), inhibition of enzyme activity. Conditions: read-out: Human PDE4B FL. The method, then: as §1
The recombinant Bacmid was isolated and used to transfect insect cells to generate a viral stock. To generate cell paste for purification, insect cells were infected with the virus stock and cells were harvested 72 hours after infection as described in Seeger, T. F. et al., Brain Research 985 (2003) 113-126. Insect cell paste was lysed and after centrifugation, the supernatant was chromatographed on Ni-NTA agarose (Qiagen) as described in Seeger, T. F. et al., Brain Research 985 (2003) 113-126. Ni-NTA agarose eluting fractions containing PDE4 were pooled, diluted with Q buffer A (20 mM Tris HCl pH 8, 5% glycerol, 1 mM TCEP) to reduce NaCl to ˜100 mM and loaded on a Source 15Q (GE Healthcare) column. After washing with Q buffer A/10% buffer B to baseline, PDE4D was eluted with a gradient from 10% to 60% of Buffer B (20 mM Tris HCl pH 8, 1 M NaCl, 5% glycerol, 1 mM TCEP). PDE4D fractions were analyzed by SDS-PAGE Coomassie blue staining, pooled based on purity, frozen and stored at −80° C.
as §3

Setting [5] is: Table 9, geometric mean of 2-9 determinations unless otherwise indicated.
The mark [6] stands for this setting: Table 10, geometric mean of 2-9 determinations unless otherwise indicated.

Sequence of Human PDE4A3 (P27815 other isoform, or with tags, fused parts or gaps): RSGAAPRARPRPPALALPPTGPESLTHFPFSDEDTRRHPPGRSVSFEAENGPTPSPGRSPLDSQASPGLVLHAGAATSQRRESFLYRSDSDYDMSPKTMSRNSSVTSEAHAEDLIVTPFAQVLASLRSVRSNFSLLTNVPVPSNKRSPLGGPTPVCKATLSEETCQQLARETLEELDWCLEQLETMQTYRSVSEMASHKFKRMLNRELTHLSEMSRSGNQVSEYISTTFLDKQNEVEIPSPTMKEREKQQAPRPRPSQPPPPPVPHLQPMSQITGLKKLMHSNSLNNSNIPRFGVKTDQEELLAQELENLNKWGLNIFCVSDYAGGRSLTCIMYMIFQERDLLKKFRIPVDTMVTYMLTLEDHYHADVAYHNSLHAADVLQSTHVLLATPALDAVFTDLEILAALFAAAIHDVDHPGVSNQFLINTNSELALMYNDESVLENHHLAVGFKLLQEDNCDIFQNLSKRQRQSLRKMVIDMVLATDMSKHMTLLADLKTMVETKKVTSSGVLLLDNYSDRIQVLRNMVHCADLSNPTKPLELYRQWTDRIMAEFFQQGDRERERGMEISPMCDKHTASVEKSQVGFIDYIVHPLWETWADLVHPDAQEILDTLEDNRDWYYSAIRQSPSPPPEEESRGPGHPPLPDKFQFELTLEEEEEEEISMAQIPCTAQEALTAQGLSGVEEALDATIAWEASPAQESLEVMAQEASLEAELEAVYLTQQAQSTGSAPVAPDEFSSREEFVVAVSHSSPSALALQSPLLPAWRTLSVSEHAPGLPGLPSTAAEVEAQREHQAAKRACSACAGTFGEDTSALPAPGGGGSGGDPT
Sequence of Human PDE4B1 (Q07343 122-736 S133E/S654A/S659A/S661A): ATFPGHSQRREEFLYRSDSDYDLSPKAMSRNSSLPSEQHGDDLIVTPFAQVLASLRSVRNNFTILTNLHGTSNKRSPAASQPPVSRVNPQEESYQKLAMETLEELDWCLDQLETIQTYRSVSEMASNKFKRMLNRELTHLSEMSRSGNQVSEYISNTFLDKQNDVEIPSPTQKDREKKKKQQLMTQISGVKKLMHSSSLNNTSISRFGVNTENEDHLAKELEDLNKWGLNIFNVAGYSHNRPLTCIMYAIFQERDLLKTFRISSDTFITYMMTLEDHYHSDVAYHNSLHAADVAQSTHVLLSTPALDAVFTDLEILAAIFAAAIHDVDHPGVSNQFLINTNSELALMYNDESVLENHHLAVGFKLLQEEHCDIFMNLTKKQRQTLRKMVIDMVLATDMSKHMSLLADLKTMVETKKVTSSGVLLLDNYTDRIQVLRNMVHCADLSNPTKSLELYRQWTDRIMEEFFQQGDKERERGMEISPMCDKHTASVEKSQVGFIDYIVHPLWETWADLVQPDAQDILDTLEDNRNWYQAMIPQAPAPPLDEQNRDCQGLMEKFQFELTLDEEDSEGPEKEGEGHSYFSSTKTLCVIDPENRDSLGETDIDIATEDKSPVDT
Sequence of human PDE4D3 (Q08499 186-808): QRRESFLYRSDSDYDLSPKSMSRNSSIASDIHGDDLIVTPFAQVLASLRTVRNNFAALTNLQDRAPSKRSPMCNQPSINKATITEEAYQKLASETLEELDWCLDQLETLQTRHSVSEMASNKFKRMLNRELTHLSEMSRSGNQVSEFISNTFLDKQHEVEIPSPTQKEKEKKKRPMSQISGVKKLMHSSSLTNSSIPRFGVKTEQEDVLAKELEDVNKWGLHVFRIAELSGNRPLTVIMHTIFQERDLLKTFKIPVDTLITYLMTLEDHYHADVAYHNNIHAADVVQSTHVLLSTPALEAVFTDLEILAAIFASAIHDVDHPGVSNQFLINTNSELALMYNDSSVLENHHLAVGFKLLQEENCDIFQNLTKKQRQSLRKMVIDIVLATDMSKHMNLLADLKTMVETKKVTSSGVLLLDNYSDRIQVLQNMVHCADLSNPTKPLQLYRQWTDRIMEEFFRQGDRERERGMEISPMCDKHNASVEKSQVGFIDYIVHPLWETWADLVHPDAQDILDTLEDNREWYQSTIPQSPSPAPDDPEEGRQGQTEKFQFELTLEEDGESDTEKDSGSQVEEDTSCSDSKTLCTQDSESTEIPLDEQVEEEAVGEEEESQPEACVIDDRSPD
Sequence of Human PDE4C1 (Q08493 2-712): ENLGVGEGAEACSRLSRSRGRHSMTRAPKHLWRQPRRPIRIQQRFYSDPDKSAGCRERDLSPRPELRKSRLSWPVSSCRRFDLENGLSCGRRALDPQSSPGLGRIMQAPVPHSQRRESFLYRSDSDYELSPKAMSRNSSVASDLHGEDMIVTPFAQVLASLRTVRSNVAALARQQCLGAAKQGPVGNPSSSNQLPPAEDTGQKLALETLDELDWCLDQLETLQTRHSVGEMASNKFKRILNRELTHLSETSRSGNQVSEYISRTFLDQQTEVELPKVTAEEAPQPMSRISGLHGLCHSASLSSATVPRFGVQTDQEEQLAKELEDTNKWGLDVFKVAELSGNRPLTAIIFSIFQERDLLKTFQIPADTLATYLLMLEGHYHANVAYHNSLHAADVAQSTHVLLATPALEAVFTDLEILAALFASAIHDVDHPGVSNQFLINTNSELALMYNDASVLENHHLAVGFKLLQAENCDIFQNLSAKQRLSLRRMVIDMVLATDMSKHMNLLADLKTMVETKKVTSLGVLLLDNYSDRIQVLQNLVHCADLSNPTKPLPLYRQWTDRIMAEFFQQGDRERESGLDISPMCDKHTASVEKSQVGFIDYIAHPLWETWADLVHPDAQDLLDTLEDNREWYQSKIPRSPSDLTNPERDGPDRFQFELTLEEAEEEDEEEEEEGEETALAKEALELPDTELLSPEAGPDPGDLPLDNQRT

For `Cc1cc(Cl)c(F)cc1-c1c2c(n3c1C(=O)N(C1CC1)CC3)CCCO2` [Example 29, 10-(4-Chloro-5-fluoro-2-methylphenyl)-8-cyclopropyl-3,4,7,8-tetrahydro-2H-pyrano[2′,3′:4,5]pyrrolo[1,2-a]pyrazin-9(6H)-one], the IC50 in experiment [1] (setting [5]) stood at 1 nM; in experiment [2] (setting [5]), 2.45 nM; in experiment [3] (setting [5]), 12.7 nM; in experiment [4] (setting [5]), 1 nM.

For the compound `O=C1c2c(-c3ccc(Cl)cc3)c3ncccc3n2CC2CCN12` (single isomer, unassigned) [Example 68], the IC50 in experiment [1] (setting [5]) was found to be 26 nM; in experiment [2] (setting [5]), 26 nM; in experiment [3] (setting [5]), 538 nM; in experiment [4] (setting [5]), 18.5 nM.

Turning to `Cc1cc(C#N)c(F)cc1-c1c2n(c3scnc13)CCN(C1CC1)C2=O` [Example 28, 4-(7-Cyclopropyl-8-oxo-5,6,7,8-tetrahydro[1,3]thiazolo[4′,5′:4,5]pyrrolo[1,2-a]pyrazin-9-yl)-2-fluoro-5-methylbenzonitrile], the IC50 in experiment [1] (setting [5]) was found to be 3.92 nM; in experiment [2] (setting [5]), 21 nM; in experiment [3] (setting [5]), 85.7 nM; in experiment [4] (setting [5]), 2.14 nM.

For the compound `N#Cc1ccc(-c2c3n(c4scnc24)CCN(C2CC2)C3=O)cc1F` [Example 72, 4-(7-Cyclopropyl-8-oxo-5,6,7,8-tetrahydro[1,3]thiazolo[4′,5′:4,5]pyrrolo[1,2-a]pyrazin-9-yl)-2-fluorobenzonitrile], the IC50 stood at 3.53 nM in experiment [1] (setting [5]), 15.1 nM in experiment [2] (setting [5]), 90.4 nM in experiment [3] (setting [5]) and 4.36 nM in experiment [4] (setting [5]).

Consider `Cc1cc(C#N)ccc1-c1c2n(c3scnc13)CCN(C1CC1)C2=O` [Example 14, 4-(7-Cyclopropyl-8-oxo-5,6,7,8-tetrahydro[1,3]thiazolo[4′,5′:4,5]pyrrolo[1,2-a]pyrazin-9-yl)-3-methylbenzonitrile], for which the IC50 in experiment [1] (setting [5]) amounted to 18.5 nM; in experiment [2] (setting [5]) it was 79 nM; in experiment [3] (setting [5]), 2090 nM; in experiment [4] (setting [5]), 19.3 nM.

Turning to `O=C1c2c(-c3ccc4c(c3)CCO4)c3ncccc3n2CCN1C1CC1` [Example 35, 8-Cyclopropyl-10-(2,3-dihydro-1-benzofuran-5-yl)-7,8-dihydropyrido[2′,3′:4,5]pyrrolo[1,2-a]pyrazin-9(6H)-one], the IC50 in experiment [1] (setting [5]) is 2.08 nM; in experiment [2] (setting [5]), 5.52 nM; in experiment [3] (setting [5]), 141 nM; in experiment [4] (setting [5]) it was 4.15 nM.

As for `O=C1c2c(C3CCCC3)c3ncccc3n2CCN1C1CC1` [Example 86, 10-Cyclopentyl-8-cyclopropyl-7,8-dihydropyrido[2′,3′:4,5]pyrrolo[1,2-a]pyrazin-9(6H)-one], the IC50 in experiment [1] (setting [6]) was determined as 2.52 nM; in experiment [2] (setting [6]) it was 18.1 nM; in experiment [3] (setting [6]), 29 nM; in experiment [4] (setting [6]), 2.63 nM.

Regarding `Cc1ncc(-c2c3n(c4cccnc24)CCN(C2CC2)C3=O)cn1` [Example 21, 8-Cyclopropyl-10-(2-methylpyrimidin-5-yl)-7,8-dihydropyrido[2′,3′:4,5]pyrrolo[1,2-a]pyrazin-9(6H)-one], the IC50 amounted to 8.6 nM in experiment [1] (setting [5]), 132 nM in experiment [2] (setting [5]), 4340 nM in experiment [3] (setting [5]) and 75.9 nM in experiment [4] (setting [5]).

As to `Cc1ccc(-c2c3n(c4cccnc24)CCN(C2CC2)C3=O)c(C)c1` [Example 65, 8-Cyclopropyl-10-(2,4-dimethylphenyl)-7,8-dihydropyrido[2′,3′:4,5]pyrrolo[1,2-a]pyrazin-9(6H)-one], the IC50 in experiment [1] (setting [5]) is 5.65 nM; in experiment [2] (setting [5]) it was 13.8 nM; in experiment [3] (setting [5]) it was 481 nM; in experiment [4] (setting [5]), 6.7 nM.

Consider `Cc1cc(C#N)c(F)cc1-c1c2c(n3c1C(=O)N(C1CC1)CC3)CCCO2` [Example 16, 4-(8-Cyclopropyl-9-oxo-3,4,6,7,8,9-hexahydro-2H-pyrano[2′,3′:4,5]pyrrolo[1,2-a]pyrazin-10-yl)-2-fluoro-5-methylbenzonitrile], for which the IC50 in experiment [1] (setting [5]) turned out to be 1.57 nM; in experiment [2] (setting [5]), 15.2 nM; in experiment [3] (setting [5]), 45.5 nM; in experiment [4] (setting [5]) it was 1.78 nM.

Turning to `CCCc1cnc(N2CCn3c(c(-c4ccc(Cl)cc4)c4ncccc43)C2=O)nc1` [Example 95, 10-(4-Chlorophenyl)-8-(5-propylpyrimidin-2-yl)-7,8-dihydropyrido[2′,3′:4,5]pyrrolo[1,2-a]pyrazin-9(6H)-one], the IC50 was found to be 345 nM in experiment [1] (setting [6]), 649 nM in experiment [2] (setting [6]), 1920 nM in experiment [3] (setting [6]) and 1890 nM in experiment [4] (setting [6]).

For `COCCCCCCN1CCn2c(c(-c3ccc(Cl)cc3)c3ncccc32)C1=O` [Example 96, 10-(4-Chlorophenyl)-8-(6-methoxyhexyl)-7,8-dihydropyrido[2′,3′:4,5]pyrrolo[1,2-a]pyrazin-9(6H)-one], the IC50 in experiment [1] (setting [6]) was determined as 87.5 nM; in experiment [2] (setting [6]), 52.8 nM; in experiment [3] (setting [6]), 137 nM; in experiment [4] (setting [6]), 98.4 nM.

Consider `COc1ccc(-c2c3n(c4cccnc24)CCN(C2CC2)C3=O)cc1` [Example 44, 8-Cyclopropyl-10-(4-methoxyphenyl)-7,8-dihydropyrido[2′,3′:4,5]pyrrolo[1,2-a]pyrazin-9(6H)-one], for which the IC50 in experiment [1] (setting [5]) turned out to be 33 nM; in experiment [2] (setting [5]), 86 nM; in experiment [3] (setting [5]), 212 nM; in experiment [4] (setting [5]), 6.37 nM.

These data come from patent publication US11472805B2, “Tricyclic compounds and their use as phosphodiesterase inhibitors” (Pfizer Inc., priority 2015, dated 2022).
